For one assay, the target named is T1, α1G T-type Ca2+ channels (Homo sapiens, UniProt O43497).
T1 construct: expressed in transfected cells
The assay is described as follows: Assay for inhibitory activity against T-type calcium channel using FDSS6000. The note with it: HEK293 cells expressing α1G and Kir2.1, KCl (70 mM) depolarization, fluo3/AM, read-out: FDSS (% Inhibition, at 10 μM). It is filed as cell-based. As to the method: Meanwhile, the novel compounds of Chemical Formula 1 in accordance with the present invention were assayed for antagonistic activity against T-type calcium channels. In this regard, an examination was made of the % inhibition of the compounds against T-type calcium channel using FDSS6000.
In the present invention, in order to search for an efficient inhibitor against T-type calcium channel, a primary assay for T-type calcium channel inhibiting activity was conducted by a high-efficient assay using FDSS6000, wherein mammal HEK293 cell lines (originated from human kidney carcinoma cells), which specifically express alG of T-type calcium channel, were used for the primary assay.
HEK293 cells which stably express both α1G and Kir2.1 subunits were grown in Dulbecoo's modified Eagle's medium supplemented with 10% (v/v) fetal bovine serum, penicillin (100 U/ml), streptomycin (100 µg/ml), geneticin (500 µg/ml), and puromycin (1 μg/ml) at 37° C. in a humid atmosphere of 5% CO2 and 95% air. Cells were seeded into 96-well black wall clear bottom plates at a density of 40,000 cells/well and were used on the next day for high-throughput screening (HTS) FDSS6000 assay. For FDSS6000 assay, cells were incubated for 60 min at room temperature with 5 µM fluo3/AM and 0.001% Pluronic F-127 in a HEPES-buffered solution composed of (in MM): 115 NaCl, 5.4 KCl, 0.8 MgCl2, 1.8 CaCl2, 20 HEPES, 13.8 glucose (pH 7.4). During fluorescence-based FDSS6000 assay, […]1G T-type Ca^2+ channels were activated using a high concentration of KCl (70 mM) in 10 mM CaCl2 contained HEPES-buffered solution, and the increase in [Ca^2+]i by KCl-induced depolarization was detected. All data were collected and analyzed using FDSS6000 and related software (Hamamatsu, Japan).

For a further assay, the target named is T-type calcium channel (Homo sapiens, UniProt O43497). The assay is described as follows: Measurement of ion currents through T-type calcium channel using automated patch clamp. The assay is classed as cell-based. The note with it: whole-cell automated patch clamp, HEK-293 cells expressing T-type calcium channel, 10 mM Ba2+. An excerpt:
The selected compounds were used in a second assay for T-type calcium channel inhibiting activity using electrophysiological whole cell patch clamp method, wherein mammal HEK293 cell lines, which are originated from human kidney carcinoma cells and which specifically express alG of T-type calcium channel, were used for the second assay. As a reference drug, mibefradil which had been developed as T-type calcium channel inhibitor was used.
Stably expressed T-type calcium channels in Human Embryonic Kidney (HEK)-293 cell were provided by Korea Research Institute of Bioscience and Biotechnology (KRIBB) and hERG (human ether-a-go-go-related gene) channels induced by a Tet-expression system expressed in HEK-293 cell were purchased from Iongate (Frankfurt, Germany). In a humidified 5% CO2 incubator at 37° C., T-type calcium channel expressed cells were maintained in Dulbecco's modified Eagle's medium (DMEM) including 10% Fetal Bovine Serum (FBS), and hERG channel expressed cells were maintained in MEM with 10% FBS. For hERG channel expression, the Tet-expression system was activated by adding 1 μg/ml Doxycyclin into the hERG channel cell growth medium 20 h prior to use. Cell lines were subcultured once in three days and used for patch clamp recordings at final confluence of 50-80%. To harvest cells, cell detacher, Trypsin-EDTA (0.25×) was added into the dish and single cells were made using a pipette. Trypsin was removed by centrifugation at 1100 rpm for 3 min. Cells were automatically suspended after adding external cellular solution at room temperature.
The composition of solution for measuring T-type calcium channel and hERG channel activity is following: 140 mM NaCl, 2 mM CaCl2, 4 mM KCl, 1 mM MgCl2, 5 mM D-glucose and 10 mM HEPES (pH 7.4) for external cellular solution, 50 mM KCl, 10 mM NaCl, 60 mM KF, 2 mM MgCl2, 10 mM HEPES and 20 mM EGTA (pH 7.2) for internal cellular solution and 80 mM NaCl, 35 mM CaCl2, 3 mM KCl, 10 mM MgCl2 and 10 mM HEPES (pH 7.4) for seal enhancer. T-type calcium channel activity was recorded after adding 10 mM Ba^2+ into external solution. Each compound dissolved in 100% DMSO with a final concentration of 100 mM was diluted to 10 nM˜100 μM range in external solution with 10 mM Ba^2+ for T-type calcium channel and no Ba^2+ for hERG channel recordings.
In all experiments, auto patch clamp machine NPC©-16 Patchliner (Nanion Technologies, Germany) and whole-cell patch clamp technique were used. Channel current was recorded by EPC10 (HEKA, Germany) amplifier. Cell suspension and patch solutions were automatically divided into the chip (NPC-16 Chip, Nanion Technologies, Germany). Inward current was recorded at −20 mV depolarization potential at intervals of 10 s during 300 ms with −100 mV holding potential for T-type calcium channels, and tail current was recorded at −50 mV at intervals of 10 s during 500 ms after 20 mV depolarization during 200 ms with −80 mV holding potential for hERG channels. Compounds at each concentration were applied to the cell during 20 s. Inhibition curves and IC50 values were automatically calculated from peak currents using data analysis program, IGOR Pro (WaveMetrics, USA).

T-type calcium channel, sequence (O43497 whole entry): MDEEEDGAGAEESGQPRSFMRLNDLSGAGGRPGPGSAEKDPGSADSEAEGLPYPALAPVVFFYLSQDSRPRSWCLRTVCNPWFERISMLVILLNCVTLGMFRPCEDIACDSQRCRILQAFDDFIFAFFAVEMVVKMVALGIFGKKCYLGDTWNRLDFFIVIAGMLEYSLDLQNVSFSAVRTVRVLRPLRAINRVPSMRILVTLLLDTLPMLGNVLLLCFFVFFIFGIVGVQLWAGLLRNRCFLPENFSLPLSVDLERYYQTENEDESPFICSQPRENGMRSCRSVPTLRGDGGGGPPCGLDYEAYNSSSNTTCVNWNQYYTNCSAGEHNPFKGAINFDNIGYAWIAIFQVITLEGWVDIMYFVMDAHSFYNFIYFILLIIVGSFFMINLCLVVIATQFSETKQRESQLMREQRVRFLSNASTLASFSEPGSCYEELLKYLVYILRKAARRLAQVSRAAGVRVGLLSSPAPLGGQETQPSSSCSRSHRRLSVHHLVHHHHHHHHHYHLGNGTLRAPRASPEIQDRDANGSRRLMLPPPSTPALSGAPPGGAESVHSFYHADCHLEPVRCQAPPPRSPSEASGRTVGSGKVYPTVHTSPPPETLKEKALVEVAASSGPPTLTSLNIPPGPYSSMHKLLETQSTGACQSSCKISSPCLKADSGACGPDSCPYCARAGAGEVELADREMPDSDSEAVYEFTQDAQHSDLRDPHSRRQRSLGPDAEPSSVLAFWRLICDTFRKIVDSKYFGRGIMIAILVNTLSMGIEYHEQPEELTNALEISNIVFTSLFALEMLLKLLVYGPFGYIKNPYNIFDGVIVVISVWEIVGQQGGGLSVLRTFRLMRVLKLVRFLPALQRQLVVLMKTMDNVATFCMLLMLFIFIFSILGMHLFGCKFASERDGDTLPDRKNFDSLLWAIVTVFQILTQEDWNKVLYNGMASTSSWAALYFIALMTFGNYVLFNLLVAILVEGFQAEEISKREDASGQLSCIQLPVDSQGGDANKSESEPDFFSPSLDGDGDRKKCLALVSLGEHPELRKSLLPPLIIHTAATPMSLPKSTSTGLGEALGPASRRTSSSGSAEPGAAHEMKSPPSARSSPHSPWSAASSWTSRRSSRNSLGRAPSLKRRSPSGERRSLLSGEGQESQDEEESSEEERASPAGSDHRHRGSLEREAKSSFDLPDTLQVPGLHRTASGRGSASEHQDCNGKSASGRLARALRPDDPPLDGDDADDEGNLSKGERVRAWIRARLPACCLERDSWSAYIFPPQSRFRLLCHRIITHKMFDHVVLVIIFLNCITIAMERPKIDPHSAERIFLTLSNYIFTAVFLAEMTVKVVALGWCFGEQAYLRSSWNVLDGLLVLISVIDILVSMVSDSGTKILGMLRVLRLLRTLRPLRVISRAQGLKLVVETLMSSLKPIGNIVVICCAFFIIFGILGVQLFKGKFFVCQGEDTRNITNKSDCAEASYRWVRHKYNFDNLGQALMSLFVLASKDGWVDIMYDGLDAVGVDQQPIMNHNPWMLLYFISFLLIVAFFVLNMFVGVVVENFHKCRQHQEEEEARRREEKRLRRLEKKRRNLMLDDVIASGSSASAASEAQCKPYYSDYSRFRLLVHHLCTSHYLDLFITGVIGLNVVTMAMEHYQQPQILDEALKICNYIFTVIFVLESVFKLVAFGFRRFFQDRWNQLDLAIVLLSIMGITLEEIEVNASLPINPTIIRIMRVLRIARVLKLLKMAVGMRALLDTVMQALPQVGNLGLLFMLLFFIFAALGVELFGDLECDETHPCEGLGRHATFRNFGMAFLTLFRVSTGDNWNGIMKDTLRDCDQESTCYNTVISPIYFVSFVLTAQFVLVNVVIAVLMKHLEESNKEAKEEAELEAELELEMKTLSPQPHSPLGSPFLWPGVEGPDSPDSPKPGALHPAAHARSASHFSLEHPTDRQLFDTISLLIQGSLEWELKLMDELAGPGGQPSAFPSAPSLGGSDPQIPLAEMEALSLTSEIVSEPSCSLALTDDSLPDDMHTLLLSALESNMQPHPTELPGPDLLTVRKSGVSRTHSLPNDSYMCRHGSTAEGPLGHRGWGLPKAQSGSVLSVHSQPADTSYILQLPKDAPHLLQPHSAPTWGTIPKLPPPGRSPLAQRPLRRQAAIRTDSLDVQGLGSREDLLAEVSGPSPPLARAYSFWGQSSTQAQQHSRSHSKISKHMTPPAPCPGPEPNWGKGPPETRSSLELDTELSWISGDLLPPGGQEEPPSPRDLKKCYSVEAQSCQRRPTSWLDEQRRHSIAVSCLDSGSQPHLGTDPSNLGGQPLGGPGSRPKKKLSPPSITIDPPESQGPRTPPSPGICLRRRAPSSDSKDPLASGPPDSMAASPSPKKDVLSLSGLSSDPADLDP
T1 sequence (O43497 whole entry): as above

With `O=C(NCCCN1CCCCC1)c1ccc2c(c1)C(=O)N(Cc1ccccc1)C2` [Compound 1, 2-benzyl-3-oxo-N-(3-(piperidin-1-yl)propyl)isoindoline-5-carboxamide], the inhibition at 10 µM on α1G T-type Ca2+ channels came to 22%. Further, at T-type calcium channel, the half-inhibitory concentration (IC50) came out at 9570 nM.
With `O=C(NCCCN1CCCCC1)c1ccc2c(c1)C(=O)N(Cc1ccc(Br)cc1)C2` [Compound 7, 2-(4-bromobenzyl)-3-oxo-N-(3-(piperidin-1-yl)propyl)isoindoline-5-carboxamide], on α1G T-type Ca2+ channels, the inhibition at 10 µM is 33.4%. On T-type calcium channel, the 50% inhibitory concentration (IC50) worked out at 9770 nM.
Taken in the same sequence, the figures for `CCC1CCCCN1CCCNC(=O)c1ccc2c(c1)C(=O)N(Cc1cccc(Br)c1)C2` (centres unmarked) [Compound 24, 2-(3-bromobenzyl)-N-(3-(2-ethylpiperidin-1-yl)propyl)-3-oxoisoindoline-5-carboxamide] were 46% and 4070 nM.
The matching figures for `CCCC1CCCCN1CCCNC(=O)c1ccc2c(c1)C(=O)N(Cc1cccc(Br)c1)C2` (centres unmarked) [Compound 33, 2-(3-bromobenzyl)-3-oxo-N-(3-(2-propylpiperidin-1-yl)propyl)isoindoline-5-carboxamide]: 60.8% and 1740 nM.
Taken in the same sequence, the figures for `CCCC1CCCCN1CCCNC(=O)c1ccc2c(c1)C(=O)N(Cc1ccc(I)cc1)C2` (centres unmarked) [Compound 36, 2-(4-iodobenzyl)-3-oxo-N-(3-(2-propylpiperidin-1-yl)propyl)isoindoline-5-carboxamide] were 53.8% and 6870 nM.
As for `CC(C)C1CCCCN1CCCNC(=O)c1ccc2c(c1)C(=O)N(Cc1cccc(Cl)c1)C2` (centres unmarked) [Compound 40, 2-(3-chlorobenzyl)-N-(3-(2-isopropylpiperidin-1-yl)propyl)-3-oxoisoindoline-5-carboxamide], the inhibition at 10 µM on α1G T-type Ca2+ channels came to 56.7%. At T-type calcium channel, the IC50 came out at 1010 nM.
The matching figures for `CC(C)C1CCCCN1CCCNC(=O)c1ccc2c(c1)C(=O)N(Cc1cccc(Br)c1)C2` (centres unmarked) [Compound 42, 2-(3-bromobenzyl)-N-(3-(2-isopropylpiperidin-1-yl)propyl)-3-oxoisoindoline-5-carboxamide]: 44.4% and 4150 nM.
The matching figures for `CC(C)C1CCCCN1CCCNC(=O)c1ccc2c(c1)C(=O)N(Cc1ccc(Br)cc1)C2` (centres unmarked) [Compound 43, 2-(4-bromobenzyl)-N-(3-(2-isopropylpiperidin-1-yl)propyl)-3-oxoisoindoline-5-carboxamide]: 51.7% and 5100 nM.
Regarding `CC(C)C1CCCCN1CCCNC(=O)c1ccc2c(c1)C(=O)N(Cc1cccc(I)c1)C2` (centres unmarked) [Compound 44, 2-(3-iodobenzyl)-N-(3-(2-isopropylpiperidin-1-yl)propyl)-3-oxoisoindoline-5-carboxamide], the inhibition at 10 µM at α1G T-type Ca2+ channels came to 60.7%. Also, on T-type calcium channel, the half-inhibitory concentration (IC50) amounted to 4360 nM.
The matching figures for `CC(C)C1CCCCN1CCCNC(=O)c1ccc2c(c1)C(=O)N(Cc1ccc(I)cc1)C2` (centres unmarked) [Compound 45, 2-(4-iodobenzyl)-N-(3-(2-isopropylpiperidin-1-yl)propyl)-3-oxoisoindoline-5-carboxamide]: 58.9% and 1070 nM.
Consider `CCCCC1CCCCN1CCCNC(=O)c1ccc2c(c1)C(=O)N(Cc1ccccc1)C2` (centres unmarked) [Compound 46, 2-benzyl-N-(3-(2-butylpiperidin-1-yl)propyl)-3-oxoisoindoline-5-carboxamide], for which the inhibition at 10 µM on α1G T-type Ca2+ channels worked out at 55.3%. On T-type calcium channel, the IC50 came to 2650 nM.
Regarding `CCCCC1CCCCN1CCCNC(=O)c1ccc2c(c1)C(=O)N(Cc1cccc(F)c1)C2` (centres unmarked) [Compound 47, N-(3-(2-butylpiperidin-1-yl)propyl)-2-(3-fluorobenzyl)-3-oxoisoindoline-5-carboxamide], the inhibition at 10 µM at α1G T-type Ca2+ channels was found to be 49%. The IC50 at T-type calcium channel came out at 2300 nM.
As to `CCCCC1CCCCN1CCCNC(=O)c1ccc2c(c1)C(=O)N(Cc1ccc(F)cc1)C2` (centres unmarked) [Compound 48, N-(3-(2-butylpiperidin-1-yl)propyl)-2-(4-fluorobenzyl)-3-oxoisoindoline-5-carboxamide], on α1G T-type Ca2+ channels, the inhibition at 10 µM amounted to 62.1%. On T-type calcium channel, the IC50 came to 1920 nM.
Taken in the same sequence, the figures for `CCCCC1CCCCN1CCCNC(=O)c1ccc2c(c1)C(=O)N(Cc1cccc(Cl)c1)C2` (centres unmarked) [Compound 49, N-(3-(2-butylpiperidin-1-yl)propyl)-2-(3-chlorobenzyl)-3-oxoisoindoline-5-carboxamide] were 71.8% and 620 nM.
The matching figures for `O=C(NCCCN1CCCCC1c1ccccc1)c1ccc2c(c1)C(=O)N(Cc1cccc(Br)c1)C2` (centres unmarked) [Compound 60, 2-(3-bromobenzyl)-3-oxo-N-(3-(2-phenylpiperidin-1-yl)propyl)isoindoline-5-carboxamide]: 55.2% and 1540 nM.
Taken in the same sequence, the figures for `O=C(NCCCN1CCCCC1c1ccccc1)c1ccc2c(c1)C(=O)N(Cc1ccc(Br)cc1)C2` (centres unmarked) [Compound 61, 2-(4-bromobenzyl)-3-oxo-N-(3-(2-phenylpiperidin-1-yl)propyl)isoindoline-5-carboxamide] were 45.6% and 1070 nM.

The record behind these values is US8148402B2, “Isoindolinone derivatives having inhibitory activity against T-type calcium channel and method for preparation thereof” (Korea Institute of Science and Technology, priority 2008, dated 2012).
